Results: patent publication US20230279025A1, “KRAS G12D INHIBITORS” (Mirati Therapeutics, Inc., priority 2020, published 2023)
pIC50, pKd: −log10 of the molar value.

How the values were obtained:
KRas G12D [1] = biological target: T1, KRas G12D (Homo sapiens (Human), UniProt P01116, G12D); experiment: KRas G12D Surface Plasmon Resonance (SPR) Binding Assay; details: Biacore T200, immobilized biotinylated KRAS protein, 1:1 binding model
Target sequence in this assay (P01116-2 other isoform, or with tags, fused parts or gaps G12D): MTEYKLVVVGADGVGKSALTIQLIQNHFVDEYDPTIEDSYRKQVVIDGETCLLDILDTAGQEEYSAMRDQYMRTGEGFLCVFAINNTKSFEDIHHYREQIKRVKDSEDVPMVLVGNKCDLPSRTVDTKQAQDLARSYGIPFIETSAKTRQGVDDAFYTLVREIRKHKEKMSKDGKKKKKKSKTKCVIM

KRas G12D [2] = biological target: T1, KRas G12D; experiment: KRas G12D Binding Assay (TR-FRET displacement of Cy5 labelled tracer); details: GDP-loaded KRAS G12D (amino acids 1:169), 60 minute incubation at 22° C.
Procedure: After a 60 minute incubation at 22° C., the reaction was measured using a PerkinElmer EnVision multimode plate reader via TR-FRET dual wavelength detection, and the percent of control (POC) calculated using a ratiometric emission factor. […] The POC values were fit to a 4-parameter logistic curve and the IC50 value was determined as the concentration where the curve crosses 50 POC.
ND stands for “not determined.”
Target sequence in this assay (P01116 other isoform, or with tags, fused parts or gaps G12D): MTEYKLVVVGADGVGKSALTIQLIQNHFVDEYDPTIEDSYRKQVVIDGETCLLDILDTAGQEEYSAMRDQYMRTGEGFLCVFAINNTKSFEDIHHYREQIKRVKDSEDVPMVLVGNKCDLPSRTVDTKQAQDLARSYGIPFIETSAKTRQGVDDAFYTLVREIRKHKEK

Compound | pKd (KRas G12D [1]) | pIC50 (KRas G12D [2])
Oc1cc(-c2ncc3c(N4C[C@H]5CC[C@@H](C4)N5)nc(OCCCC(F)(F)F)nc3c2F)c2ccccc2c1 [Example 38, 4-(4-((1R,5S)-3,8-diazabicyclo[3.2.1]octan-3-yl)-8-fluoro-2-(4,4,4-trifluorobutoxy)pyrido[4,3-d]pyrimidin-7-yl)naphthalen-2-ol] | 6.12 | 6.76
CN(C)C1CN(c2nc(N3C[C@H]4CC[C@@H](C3)N4)c3cnc(-c4cc(O)cc5ccccc45)c(F)c3n2)C1 [Example 120, 4-(4-((1R,5S)-3,8-diazabicyclo[3.2.1]octan-3-yl)-2-(3-(dimethylamino)azetidin-1-yl)-8-fluoropyrido[4,3-d]pyrimidin-7-yl)naphthalen-2-ol bis(2,2,2-trifluoroacetate)] | 7.38 | 7.54
Oc1cc(-c2ncc3c(N4C[C@H]5CC[C@@H](C4)N5)nc(OCC4CCCC4)nc3c2F)c2ccccc2c1 [Example 73, 4-(4-((1R,5S)-3,8-diazabicyclo[3.2.1]octan-3-yl)-2-(cyclopentylmethoxy)-8-fluoropyrido[4,3-d]pyrimidin-7-yl)naphthalen-2-ol] | 3.18 | 6.24
CCO[C@@H]1C[C@@H](COc2nc(N3C[C@H]4CC[C@@H](C3)N4)c3cnc(-c4cccc5cccc(Cl)c45)c(F)c3n2)N(C)C1 [Example 43, 4-((1R,5S)-3,8-diazabicyclo[3.2.1]octan-3-yl)-7-(8-chloronaphthalen-1-yl)-2-(((2S,4R)-4-ethoxy-1-methylpyrrolidin-2-yl)methoxy)-8-fluoropyrido[4,3-d]pyrimidine] | 6.73 | 7.14
CN(C)C1CN(c2nc(N3C[C@H]4CC[C@@H](C3)N4)c3cnc(-c4cccc5cccc(Cl)c45)c(F)c3n2)C1 [Example 122, 1-(4-((1R,5S)-3,8-diazabicyclo[3.2.1]octan-3-yl)-7-(8-chloronaphthalen-1-yl)-8-fluoropyrido[4,3-d]pyrimidin-2-yl)-N,N-dimethylazetidin-3-amine] | 5.47 | 5.49
CN1CCC[C@H]1COc1nc(N2C[C@H]3CC[C@@H](C2)N3)c2cnc(-c3cccc4ccc(F)cc34)c(F)c2n1 [Example 19, 4-((1R,5S)-3,8-diazabicyclo[3.2.1]octan-3-yl)-8-fluoro-7-(7-fluoronaphthalen-1-yl)-2-(((S)-1-methylpyrrolidin-2-yl)methoxy)pyrido[4,3-d]pyrimidine] | 6.18 | 6.91
CN1CCC[C@H]1COc1nc(N2C[C@H]3CC[C@@H](C2)N3)c2cnc(-c3cccc4cccc(CCC#N)c34)c(F)c2n1 [Example 117, 3-(8-(4-((1R,5S)-3,8-diazabicyclo[3.2.1]octan-3-yl)-8-fluoro-2-(((S)-1-methylpyrrolidin-2-yl)methoxy)pyrido[4,3-d]pyrimidin-7-yl)naphthalen-1-yl)propanenitrile bis(2,2,2-trifluoroacetate)] | 6.00 | 6.14
Oc1cc(-c2ncc3c(N4C[C@H]5CC[C@@H](C4)N5)nc(N4CCCC4)nc3c2F)c2ccccc2c1 [Example 118, 4-(4-((1R,5S)-3,8-diazabicyclo[3.2.1]octan-3-yl)-8-fluoro-2-(pyrrolidin-1-yl)pyrido[4,3-d]pyrimidin-7-yl)naphthalen-2-ol 2,2,2-trifluoroacetate] | 5.97 | 6.32
O=C(O)CCOc1nc(N2C[C@H]3CC[C@@H](C2)N3)c2cnc(-c3cccc4cccc(Cl)c34)c(F)c2n1 [Example 61, 3-((4-((1R,5S)-3,8-diazabicyclo[3.2.1]octan-3-yl)-7-(8-chloronaphthalen-1-yl)-8-fluoropyrido[4,3-d]pyrimidin-2-yl)oxy)propanoic acid compound with 2,2,2-trifluoroacetaldehyde] | 6.94 | 5.39
OC[C@@H]1CCCN1c1nc(N2C[C@H]3CC[C@@H](C2)N3)c2cnc(-c3cc(O)cc4ccccc34)c(F)c2n1 [Example 77, 4-(4-((1R,5S)-3,8-diazabicyclo[3.2.1]octan-3-yl)-8-fluoro-2-((S)-2-(hydroxymethyl)pyrrolidin-1-yl)pyrido[4,3-d]pyrimidin-7-yl)naphthalen-2-ol] | 5.51 | 5.50
Cn1ccnc1CCOc1nc(N2C[C@H]3CC[C@@H](C2)N3)c2cnc(-c3cccc4ccccc34)c(F)c2n1 [Example 94, 4-((1R,5S)-3,8-diazabicyclo[3.2.1]octan-3-yl)-8-fluoro-2-(2-(1-methyl-1H-imidazol-2-yl)ethoxy)-7-(naphthalen-1-yl)pyrido[4,3-d]pyrimidine] | 5.13 | 5.44
CN1C[C@H](F)C[C@H]1COc1nc(N2C[C@H]3CC[C@@H](C2)N3)c2cnc(-c3cc(O)cc4ccccc34)c(F)c2n1 [Example 16, 4-(4-((1R,5S)-3,8-diazabicyclo[3.2.1]octan-3-yl)-8-fluoro-2-(((2S,4R)-4-fluoro-1-methylpyrrolidin-2-yl)methoxy)pyrido[4,3-d]pyrimidin-7-yl)naphthalen-2-ol] | 7.50 | 7.27
Fc1c(-c2cccc3cccc(Cl)c23)ncc2c(N3C[C@H]4CC[C@@H](C3)N4)nc(OCCn3cccn3)nc12 [Example 147, 2-(2-(1H-pyrazol-1-yl)ethoxy)-4-((1R,5S)-3,8-diazabicyclo[3.2.1]octan-3-yl)-7-(8-chloronaphthalen-1-yl)-8-fluoropyrido[4,3-d]pyrimidine] | 4.73 | 5.23
OCC[C@@H](CO)Oc1nc(N2C[C@H]3CC[C@@H](C2)N3)c2cnc(-c3cccc4cccc(Cl)c34)c(F)c2n1 [Example 58, (S)-2-((4-((1R,5S)-3,8-diazabicyclo[3.2.1]octan-3-yl)-7-(8-chloronaphthalen-1-yl)-8-fluoropyrido[4,3-d]pyrimidin-2-yl)oxy)butane-1,4-diol] | 5.32 | 5.63
Fc1c(-c2cccc3cccc(Cl)c23)ncc2c(N3CC4CC(F)C(C3)N4)nc(OC[C@@]34CCCN3C[C@H](F)C4)nc12 (stereo partly drawn) [Example 396, 7-(8-chloronaphthalen-1-yl)-8-fluoro-4-(6-fluoro-3,8-diazabicyclo[3.2.1]octan-3-yl)-2-((2-fluorotetrahydro-1H-pyrrolizin-7a(5H)-yl)methoxy)pyrido[4,3-d]pyrimidine] | 7.46 | 6.68
Cc1cccc2cccc(-c3ncc4c(N5C[C@H]6CC[C@@H](C5)N6)nc(OC[C@@H]5CCCN5C)nc4c3F)c12 [Example 15, 4-((1R,5S)-3,8-diazabicyclo[3.2.1]octan-3-yl)-8-fluoro-7-(8-methylnaphthalen-1-yl)-2-(((S)-1-methylpyrrolidin-2-yl)methoxy)pyrido[4,3-d]pyrimidine] | 6.68 | 6.58
O[C@@H]1C[C@@H]2CN(c3nc(OC[C@@]45CCCN4C[C@H](F)C5)nc4c(F)c(-c5cccc6cccc(Cl)c56)ncc34)C[C@H]1N2 [Example 395, (1R,5R,6R)-3-(7-(8-chloronaphthalen-1-yl)-8-fluoro-2-((2-fluorotetrahydro-1H-pyrrolizin-7a(5H)-yl)methoxy)pyrido[4,3-d]pyrimidin-4-yl)-3,8-diazabicyclo[3.2.1]octan-6-ol] | 8.59 | 8.16
CN1CCC[C@H]1COc1nc(N2CC3CCC(C2)N3)c2cnc(-c3cccc4c3CCC4O)c(F)c2n1 (stereo partly drawn) [Example 318, 4-(4-((1R,5S)-3,8-diazabicyclo[3.2.1]octan-3-yl)-8-fluoro-2-(((S)-1-methylpyrrolidin-2-yl)methoxy)pyrido[4,3-d]pyrimidin-7-yl)-2,3-dihydro-1H-inden-1-ol] | 3.43 | < 5.00
Oc1cc(-c2ncc3c(N4C[C@H]5CC[C@@H](C4)N5)nc(OCCCN4CCOCC4)nc3c2F)c2ccccc2c1 [Example 22, 4-(4-((1R,5S)-3,8-diazabicyclo[3.2.1]octan-3-yl)-8-fluoro-2-(3-morpholinopropoxy)pyrido[4,3-d]pyrimidin-7-yl)naphthalen-2-ol] | 7.71 | 7.30
Cn1nccc1COc1nc(N2C[C@H]3CC[C@@H](C2)N3)c2cnc(-c3cc(O)cc4ccccc34)c(F)c2n1 [Example 5, 4-(4-((1R,5S)-3,8-diazabicyclo[3.2.1]octan-3-yl)-8-fluoro-2-((1-methyl-1H-pyrazol-5-yl)methoxy)pyrido[4,3-d]pyrimidin-7-yl)naphthalen-2-ol] | 6.53 | 6.14
CN1CCC[C@H]1COc1nc(N2C[C@H]3CC[C@@H](C2)N3)c2cnc(-c3cccc4c3C(C)(C)CC4)c(F)c2n1 [Example 161, 4-((1R,5S)-3,8-diazabicyclo[3.2.1]octan-3-yl)-7-(3,3-dimethyl-2,3-dihydro-1H-inden-4-yl)-8-fluoro-2-(((S)-1-methylpyrrolidin-2-yl)methoxy)pyrido[4,3-d]pyrimidine bis(2,2,2-trifluoroacetate)] | 6.39 | 6.56
OCC(COc1nc(N2C[C@H]3CC[C@@H](C2)N3)c2cnc(-c3cccc4cccc(Cl)c34)c(F)c2n1)c1cccnc1 (stereo partly drawn) [Example 59, 3-((4-((1R,5S)-3,8-diazabicyclo[3.2.1]octan-3-yl)-7-(8-chloronaphthalen-1-yl)-8-fluoropyrido[4,3-d]pyrimidin-2-yl)oxy)-2-(pyridin-3-yl)propan-1-ol] | 5.95 | 6.02
Oc1cc(-c2ncc3c(N4C[C@H]5CC[C@@H](C4)N5)nc(OCc4ccccn4)nc3c2F)c2ccccc2c1 [Example 89, 4-(4-((1R,5S)-3,8-diazabicyclo[3.2.1]octan-3-yl)-8-fluoro-2-(pyridin-2-ylmethoxy)pyrido[4,3-d]pyrimidin-7-yl)naphthalen-2-ol] | 5.37 | 6.17
Oc1cc(-c2ncc3c(N4C[C@H]5CC[C@@H](C4)N5)nc(OCCC(F)(F)F)nc3c2F)c2ccccc2c1 [Example 81, 4-(4-((1R,5S)-3,8-diazabicyclo[3.2.1]octan-3-yl)-8-fluoro-2-(3,3,3-trifluoropropoxy)pyrido[4,3-d]pyrimidin-7-yl)naphthalen-2-ol] | 6.49 | 6.82
